This is an account of results in ChEMBL document CHEMBL3988181, “GlaxoSmithKline Published Kinase Inhibitor Set 2 Onchocerca lienalis Screening Data”.

This test can be described thus: GSK PKIS2: Screen against O. lienalis microfilariae, single point, at 3.1uM to assess reduction in motility. Compounds were also tested for cytotoxicity against Rhesus Monkey LLCMK2 cells. The note with it: CELL_LINE LLCMK2; CELL_SUPPLIER ECACC; CONC 3.1 uM; ORGANISM_SUPPLIER Extracted from peri-umbilical skin obtained from naturally infected cattle in the UK; temperature 37 degree C. The test is classed as functional, Onchocerca lienalis, LLC-MK2.
Consider `Clc1cccc(-c2nc(Nc3ccncc3)c3ccccc3n2)c1`, for which the “MOTILITY REDUCTION/CYTOTOXICITY” value came out at 0%.
Turning to `NS(=O)(=O)c1cccc(-c2ccc3ncc(N4CCOCC4)nc3c2)c1`, the “MOTILITY REDUCTION/CYTOTOXICITY” value is given as 0%.
Then `COc1ccccc1C1=C(Nc2cccc(O)c2)C(=O)NC1=O`, with 100%.
Then `Cc1cc(NCC(c2ccccc2)c2ccccc2)nc(NCc2ccc(C(F)(F)F)cc2)n1`, with 53.4%; and `COC(=O)c1cccc(NC(=O)NC2CCN(c3ccnc(Nc4ccc(F)cc4)n3)C2)c1` (stereo not given), with 0%.
For the compound `CSc1ccc(NC2=C(c3ccccc3Cl)C(=O)NC2=O)cc1`, the “MOTILITY REDUCTION/CYTOTOXICITY” value is 0%.
With `O=c1cc(N2CCOCC2)nc2n(Cc3ccc(F)c(Cl)c3)ccn12` the figure was 0%.
Turning to `CN(c1ccc(NC(=O)Nc2cccc(Cl)c2)cc1)c1ccnc(N)n1`, the “MOTILITY REDUCTION/CYTOTOXICITY” value was 13.4%.
Consider `COC(=O)Nc1nc2ccc(Oc3ccc(NC(=O)Nc4cccc(SC)c4)cc3)cc2[nH]1`, for which the “MOTILITY REDUCTION/CYTOTOXICITY” value worked out at 20%.
Then `Clc1ccc(-c2nn3ncccc3c2-c2ccnc(Nc3ccc4c(c3)OCCO4)n2)cc1`, with 0%.
On to `CCCC(=O)Nc1n[nH]c2ncccc12`, for which the “MOTILITY REDUCTION/CYTOTOXICITY” value is recorded as 20%.
With `CN(c1ccc2c(c1)nc(NCc1ccccc1)n2C)c1ccnc(Nc2ccc(CS(C)(=O)=O)cc2)n1` the figure was 0%.
Turning to `Fc1ccc(-c2ncn(C3CCNCC3)c2-c2ccnc(Oc3ccc(-c4ccccc4)cc3)n2)cc1`, the “MOTILITY REDUCTION/CYTOTOXICITY” value stood at 0%.
With `Nc1n[nH]c2cc(-c3ccccn3)ccc12`, the “MOTILITY REDUCTION/CYTOTOXICITY” value is 0%.
Consider `Nc1ncnc2occ(-c3ccc4c(c3)CCN4C(=O)Cc3cc(F)ccc3F)c12`, for which the “MOTILITY REDUCTION/CYTOTOXICITY” value came to 16.7%.
With `Oc1ccc2ncnc(Nc3ccc(OCc4ccccc4)cc3)c2c1`, the “MOTILITY REDUCTION/CYTOTOXICITY” value is reported as 100%.
Consider `Cc1cc(Nc2nc(-c3cccc(C)n3)nc3ccccc23)ccn1`, for which the “MOTILITY REDUCTION/CYTOTOXICITY” value stood at 0%.
With `c1ccc(Cn2ccc3cc(Nc4ncnc5ccccc45)ccc32)cc1` the figure was 33.4%.
On to `COC(=O)c1cccc(NC(=O)NC2CCN(c3ccnc(NCc4ccc(F)cc4)n3)CC2)c1`, for which the “MOTILITY REDUCTION/CYTOTOXICITY” value was 20%.
Turning to `COc1ccc(COc2cc(-n3cnc4ccccc43)sc2C(N)=O)cc1`, the “MOTILITY REDUCTION/CYTOTOXICITY” value amounted to 0%.
With `Cc1cn2c(=O)cc(N3CCOCC3)nc2n1Cc1cccc(Cl)c1Cl` the figure was 0%.
For `CN(c1ccc2c(c1)nc(NCc1ccc(F)cc1)n2C)c1ccnc(Nc2ccc(CS(C)(=O)=O)cc2)n1`, the “MOTILITY REDUCTION/CYTOTOXICITY” value is 0%.
Then `COC(=O)c1cccc(NC(=O)NCCNc2ccnc(Nc3ccc(F)cc3)n2)c1`, with 0%; and `COC(=O)Nc1nc2ccc(Oc3ccc(NC(=O)Nc4cc(C(F)(F)F)ccc4F)cc3)cc2n1C`, with 0%; and `CN(C)CCN(C)C(=O)c1cc(-c2ccncc2)c(-c2ccc(Cl)c(O)c2)o1`, with 20%.
Then `COc1ccc(Nc2nccc(N3CCC(NC(=O)Nc4cccc(C(C)=O)c4)C3)n2)cc1` (stereo not given), with 0%.
Then `Cc1ccc(C(=O)Nc2ccc(Nc3ccnc4cc(-c5nccs5)ccc34)cc2O)cc1`, with 0%.
Take `c1ccc(-c2cc3ccncc3cc2OC2CCNCC2)cc1`: the “MOTILITY REDUCTION/CYTOTOXICITY” value worked out at 93.4%.
Then `COc1cc2ncn(-c3cc(OCc4ccncc4Br)c(C(N)=O)s3)c2cc1OC`, with 0%; and `Cn1cncc1-c1cc2c(Nc3ccc(OCc4ccccc4)cc3)ncnc2cn1`, with 0%.
Then `O=C1NC(=O)C(c2ccccc2Cl)=C1Nc1cccc(C(=O)O)c1`, with 0%; and `NCCC(NC(=O)c1cc(Br)c(-c2ccnc3[nH]ccc23)s1)c1ccccc1` (stereo not given), with 13.4%; and `COc1ccc(Nc2ncc(C#N)c(Nc3ccccc3C(N)=O)n2)cc1N1CCN(C)CC1`, with 13.4%.
With `Nc1ncc(-c2ccc3nccc(-c4ccncc4)c3c2)cc1S(=O)(=O)N1CCCCC1` the figure was 33.4%; with `FC(F)(F)c1ccc(/C=C/c2cncnc2Nc2ccc3[nH]c(Cc4ccccc4)nc3c2)cc1`, 100%; with `O=C(Nc1n[nH]c2nc(-c3ccccc3)c(Br)cc12)C1CC1`, 20%.
With `Cc1cc(-c2ccc3c(c2)CC[C@@H](N[C@@H](C)c2ccccc2)C3)cnc1N`, the “MOTILITY REDUCTION/CYTOTOXICITY” value was determined as 33.4%.
In the case of `COC(=O)Nc1nc2ccc(Oc3ccc(NC(=O)Nc4cc(C(F)(F)F)ccc4Cl)cc3)cc2[nH]1`, the “MOTILITY REDUCTION/CYTOTOXICITY” value was found to be 0%.
With `COc1cc(Nc2nccc(N3CCC(NC(=O)C(C)c4ccc(Cl)cc4)C3)n2)cc(OC)c1OC` (stereo not given) the figure was 66.7%; with `CC(C)(C)c1ccc(-n2cnc3c(N)ncnc32)cc1`, 0%.
`O=C(Nc1n[nH]c2cc(-c3cccs3)ccc12)C1CC1`: the “MOTILITY REDUCTION/CYTOTOXICITY” value is on record as 0%.
Then `NCCNS(=O)(=O)c1ccc(-c2ccnc3[nH]ccc23)cc1`, with 0%.
Consider `COc1cc2nccc(Nc3ccc(Oc4ccccc4)cc3)c2cc1OC`, for which the “MOTILITY REDUCTION/CYTOTOXICITY” value is 0%.
With `O=C1NC(=O)C(N2CCc3ccccc32)=C1c1ccccc1Cl` the figure was 20%.
On to `COc1ccc(CNC(=O)NC2CCN(c3ccnc(Nc4cc(OC)c(OC)c(OC)c4)n3)C2)cc1` (stereo not given), for which the “MOTILITY REDUCTION/CYTOTOXICITY” value came to 0%.
With `NCCS[As](SCCN)c1ccc(Nc2nc(N)nc(N)n2)cc1` the figure was 100%.
With `Cc1cccc(-c2cc(-c3c[nH]nc3-c3ccccn3)ccn2)c1` the figure was 0%.
With `Fc1cccc(COc2ccc(Nc3ncnc4nn5ccccc5c34)cc2Cl)c1` the figure was 0%; with `Cc1ccc(NC(=O)c2cccc(N3CCCCC3)c2)cc1-c1ccc(C(=O)NCC2CC2)cc1`, 20%; with `Cc1ccc(C)c(Oc2nccc(-c3c(-c4ccc(F)cc4)ncn3C3CCNCC3)n2)c1`, 26.7%.
Consider `O=C(Nc1n[nH]c2nc(-c3ccco3)c(Br)cc12)C1CCN(Cc2ccccc2)C1` (stereo not given), for which the “MOTILITY REDUCTION/CYTOTOXICITY” value is recorded as 33.4%.
Then `CC(C)c1nc(-c2ccc(F)c(NS(=O)(=O)c3c(F)cccc3F)c2)c(-c2ccnc(Nc3ccc(N4CCOCC4)nc3)n2)s1`, with 0%; and `COc1ccc(C2=C(Nc3cccc(Cl)c3)C(=O)NC2=O)cc1`, with 0%.
With `FC(F)(F)c1cc(Nc2nccc(-c3c(-c4ccc(Cl)cc4)nn4ncccc34)n2)ccc1Cl` the figure was 20%; with `COc1ccc(CNC(=O)NC2CCN(c3ccnc(Nc4ccc(F)cc4)n3)CC2)cc1`, 33.4%; with `O=C(Nc1n[nH]c2cc(-c3cccc(F)c3)ccc12)C1CC1`, 0%.
As for `Nc1ncc(-c2ccc3nccc(-c4ccncc4)c3c2)cc1S(=O)(=O)N1CCOCC1`, the “MOTILITY REDUCTION/CYTOTOXICITY” value is 40%.
With `COc1cc2ncn(-c3cc(OCc4ccncc4)c(C(N)=O)s3)c2cc1OC` the figure was 0%.
On to `CCn1c(-c2nonc2N)nc2c(-c3ccccc3)ncc(OCCCN)c21`, for which the “MOTILITY REDUCTION/CYTOTOXICITY” value was 100%.
Then `COc1cccc(NC(=O)Nc2ccc(C)c(-c3ccc(C(=O)Nc4ccncc4)cc3)c2)c1`, with 100%; and `CC(C)Oc1ccc2c(-c3ccnc(Nc4ccc(N5CCN(C)CC5)cc4)n3)cnn2n1`, with 0%; and `COc1cc(Nc2nccc(N3CCC(NC(=O)c4cc5ccccc5s4)C3)n2)cc(OC)c1OC` (stereo not given), with 0%.
With `COc1ccc(Nc2nccc(N3CCC(NC(=O)C(C)c4ccc(Cl)cc4)C3)n2)cc1` (stereo not given) the figure was 33.4%.
In the case of `Oc1cccc(Nc2ccnc3cc(-c4ccncc4)ccc23)c1`, the “MOTILITY REDUCTION/CYTOTOXICITY” value worked out at 0%.
Turning to `CSc1ccc(NC2=C(c3ccc(Cl)cc3)C(=O)NC2=O)cc1`, the “MOTILITY REDUCTION/CYTOTOXICITY” value was found to be 0%.
With `COc1cc(Nc2nccc(-c3c(-c4cccc(NC(=O)c5c(F)cccc5F)c4)nn4ccccc34)n2)cc(OC)c1OC`, the “MOTILITY REDUCTION/CYTOTOXICITY” value is reported as 20%.
For `CCC(CC)(CC)n1cnc2c(N)ncnc21`, the “MOTILITY REDUCTION/CYTOTOXICITY” value amounted to 0%.
With `Cc1ccc(F)c(C(=O)Nc2cccc(-c3nn4ccccc4c3-c3ccnc(Nc4cccc(F)c4)n3)c2)c1F` the figure was 0%; with `COC(=O)C(Cc1ccccc1)NC(=O)NC1CCN(c2ccnc(Nc3ccc(F)cc3)n2)C1` (stereo not given), 13.4%.
`Cc1ccc(NC(=O)Nc2ccc(Cl)cc2)cc1-c1ccc(C(=O)Nc2ccncc2)cc1`: the “MOTILITY REDUCTION/CYTOTOXICITY” value is recorded as 86.7%.
`COC(=O)Nc1nc2ccc(Oc3ccc(NC(=O)Nc4cc(F)ccc4F)cc3)cc2[nH]1`: the “MOTILITY REDUCTION/CYTOTOXICITY” value worked out at 40%.
On to `CN1CCN(CCCNc2nccc(-c3c(-c4ccc(F)cc4)nn4cc(C(F)(F)F)ccc34)n2)CC1`, for which the “MOTILITY REDUCTION/CYTOTOXICITY” value is reported as 0%.
With `O=C(Nc1ccccc1F)NC1CCN(c2ccnc(Nc3ccc(F)cc3)n2)CC1` the figure was 53.4%; with `COc1cc2nccc(Nc3ccc(OCc4ccc(NC(C)=O)cc4)cc3)c2cc1OC`, 0%; with `Cc1ccc(CC(=O)N2CCc3cc(-c4cn(C)c5ncnc(N)c45)ccc32)cc1`, 0%.
Then `COc1cccc(C2=C(Nc3ccc(SC)cc3)C(=O)NC2=O)c1`, with 0%; and `N#Cc1cnc2cc(-c3cnc(CNCCN4CCOCC4)s3)ccc2c1Nc1ccc(Oc2ccccc2)cc1`, with 16.7%; and `Nc1nc(-c2nccs2)c(-c2ccnc3ccccc23)s1`, with 0%.
With `COc1cc(Nc2nccc(N3CCC(NC(=O)c4cccc(C#N)c4)C3)n2)cc(OC)c1OC` (stereo not given) the figure was 0%; with `CN1CCN(CCCNc2nccc(-c3c(-c4ccc(F)cc4)nn4cc(C(N)=O)ccc34)n2)CC1`, 13.4%.
